Laboratory results published in patent US10251395B2, “Substituted furano-/thienocycloalkylamino-2-pyrimidine derivatives and use thereof for controlling undesired plant growth” (Bayer CropScience Aktiengesellschaft, priority 2015, dated 2019).

What was measured:
Assay type in all cases: in vivo
Viola tricolor [1] = experiment: Post-emergence herbicidal effect; details: assessed visually after about 3 weeks vs untreated controls
How it was run: (§1)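 Seedlings at the one-leaf stage, about 2 to 3 weeks old, are sprayed on their foliage with compound suspended or emulsified in water containing 0.2% wetting agent. After roughly 3 weeks in the greenhouse, injury is estimated visually on a 0 to 100% scale.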

Echinochloa crus-galli [2] = experiment: Post-emergence herbicidal effect; details: assessed visually after about 3 weeks vs untreated controls
How it was run: as §1

Lolium multiflorum [3] = experiment: Post-emergence herbicidal effect; details: 320 g/ha, assessed visually after about 3 weeks vs untreated controls
How it was run: as §1

Amaranthus retroflexus [4] = experiment: Post-emergence herbicidal effect; details: assessed visually after about 3 weeks vs untreated controls
How it was run: as §1

Veronica persica [5] = experiment: Post-emergence herbicidal effect; details: assessed visually after about 3 weeks vs untreated controls
How it was run: as §1

Abutilon theophrasti [6] = experiment: Post-emergence herbicidal effect; details: assessed visually after about 3 weeks vs untreated controls
How it was run: as §1

Setaria viridis [7] = experiment: Post-emergence herbicidal effect; details: assessed visually after about 3 weeks vs untreated controls
How it was run: as §1

Alopecurus myosuroides [8] = experiment: Post-emergence herbicidal effect; details: 320 g/ha, assessed visually after about 3 weeks vs untreated controls
How it was run: as §1

Stellaria media [9] = experiment: Post-emergence herbicidal effect; details: assessed visually after about 3 weeks vs untreated controls
How it was run: as §1

Viola tricolor [10] = experiment: Pre-emergence herbicidal effect; details: scored visually after 3 weeks
How it was run: (§2)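 Pre-emergence soil-surface application of compound as WP or EC in water (600 to 800 L/ha, 0.2% wetting agent) to freshly sown, soil-covered seeds in sandy loam. After 3 weeks under greenhouse conditions, percent activity rated by eye versus untreated plants, from 0% (no effect) to 100% (death).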

Echinochloa crus-galli [11] = experiment: Pre-emergence herbicidal effect; details: scored visually after 3 weeks
How it was run: as §2

Amaranthus retroflexus [12] = experiment: Pre-emergence herbicidal effect; details: scored visually after 3 weeks
How it was run: as §2

Veronica persica [13] = experiment: Pre-emergence herbicidal effect; details: scored visually after 3 weeks
How it was run: as §2

Abutilon theophrasti [14] = experiment: Pre-emergence herbicidal effect; details: scored visually after 3 weeks
How it was run: as §2

Cyperus esculentus = experiment: Pre-emergence herbicidal effect; details: Dosage 320 g/ha, scored visually after 3 weeks
How it was run: as §2

Setaria viridis [15] = experiment: Pre-emergence herbicidal effect; details: scored visually after 3 weeks
How it was run: as §2

Alopecurus myosuroides [16] = experiment: Pre-emergence herbicidal effect; details: Dosage 320 g/ha, scored visually after 3 weeks
How it was run: as §2

Polygonum convolvulus [17] = experiment: Pre-emergence herbicidal effect; details: scored visually after 3 weeks
How it was run: as §2

Stellaria media [18] = experiment: Pre-emergence herbicidal effect; details: scored visually after 3 weeks
How it was run: as §2

Matricaria inodora [19] = experiment: Pre-emergence herbicidal effect; details: scored visually after 3 weeks
How it was run: as §2

Ipomoea purpurea [20] = experiment: Post-emergence herbicidal effect; details: assessed visually after about 3 weeks vs untreated controls
How it was run: as §1

Polygonum convolvulus [21] = experiment: Post-emergence herbicidal effect; details: 320 g/ha, assessed visually after about 3 weeks vs untreated controls
How it was run: as §1

Matricaria inodora [22] = experiment: Post-emergence herbicidal effect; details: assessed visually after about 3 weeks vs untreated controls
How it was run: as §1

Lolium multiflorum [23] = experiment: Pre-emergence herbicidal effect; details: Dosage 320 g/ha, scored visually after 3 weeks
How it was run: as §2

Ipomoea purpurea [24] = experiment: Pre-emergence herbicidal effect; details: Dosage 320 g/ha, scored visually after 3 weeks
How it was run: as §2

Avena fatua = experiment: Pre-emergence herbicidal effect; details: Dosage 320 g/ha, scored visually after 3 weeks
How it was run: as §2

Row | Structure (SMILES) | post-emergence efficacy VIOTR (Viola tricolor [1]; 80 g/ha) [%] | post-emergence efficacy VIOTR (Viola tricolor [1]; 320 g/ha) [%] | post-emergence efficacy ECHCG (Echinochloa crus-galli [2]; 320 g/ha) [%] | post-emergence efficacy LOLMU (Lolium multiflorum [3]) [%] | post-emergence efficacy AMARE (Amaranthus retroflexus [4]; 80 g/ha) [%] | post-emergence efficacy AMARE (Amaranthus retroflexus [4]; 320 g/ha) [%] | post-emergence efficacy VERPE (Veronica persica [5]; 80 g/ha) [%] | post-emergence efficacy VERPE (Veronica persica [5]; 320 g/ha) [%] | post-emergence efficacy STEME (Stellaria media [9]; 320 g/ha) [%] | VIOTR pre-emergence efficacy (herbicidal activity) (Viola tricolor [10]; Dosage 80 g/ha) [%] | VIOTR pre-emergence efficacy (herbicidal activity) (Viola tricolor [10]; Dosage 320 g/ha) [%] | AMARE pre-emergence efficacy (herbicidal activity) (Amaranthus retroflexus [12]; Dosage 320 g/ha) [%] | VERPE pre-emergence efficacy (herbicidal activity) (Veronica persica [13]; Dosage 80 g/ha) [%] | VERPE pre-emergence efficacy (herbicidal activity) (Veronica persica [13]; Dosage 320 g/ha) [%] | SETVI pre-emergence efficacy (herbicidal activity) (Setaria viridis [15]; Dosage 320 g/ha) [%] | POLCO pre-emergence efficacy (herbicidal activity) (Polygonum convolvulus [17]; Dosage 320 g/ha) [%] | STEME pre-emergence efficacy (herbicidal activity) (Stellaria media [18]; Dosage 80 g/ha) [%] | STEME pre-emergence efficacy (herbicidal activity) (Stellaria media [18]; Dosage 320 g/ha) [%] | MATIN pre-emergence efficacy (herbicidal activity) (Matricaria inodora [19]; Dosage 80 g/ha) [%] | MATIN pre-emergence efficacy (herbicidal activity) (Matricaria inodora [19]; Dosage 320 g/ha) [%] | further results
1 | Cc1cc2c(s1)C(Nc1ncc(S(C)(=O)=O)c(N)n1)CCC2 (racemic) [compound 19] | 90 | 100 | 100 | 80 | 80 | 90 | 90 | 100 | 100 | 100 | 100 | 100 | 100 | 100 | 100 | 80 | 100 | 100 | 100 | 100 | post-emergence efficacy ECHCG (Echinochloa crus-galli [2]; 80 g/ha): 100%; post-emergence efficacy ABUTH (Abutilon theophrasti [6]; 80 g/ha): 90%; post-emergence efficacy ABUTH (Abutilon theophrasti [6]; 320 g/ha): 90%; post-emergence efficacy SETVI (Setaria viridis [7]; 80 g/ha): 90%; post-emergence efficacy SETVI (Setaria viridis [7]; 320 g/ha): 100%; post-emergence efficacy ALOMY (Alopecurus myosuroides [8]): 90%; post-emergence efficacy STEME (Stellaria media [9]; 80 g/ha): 80%; ECHCG pre-emergence efficacy (herbicidal activity) (Echinochloa crus-galli [11]; Dosage 80 g/ha): 100%; ECHCG pre-emergence efficacy (herbicidal activity) (Echinochloa crus-galli [11]; Dosage 320 g/ha): 100%; AMARE pre-emergence efficacy (herbicidal activity) (Amaranthus retroflexus [12]; Dosage 80 g/ha): 100%; ABUTH pre-emergence efficacy (herbicidal activity) (Abutilon theophrasti [14]; Dosage 80 g/ha): 80%; ABUTH pre-emergence efficacy (herbicidal activity) (Abutilon theophrasti [14]; Dosage 320 g/ha): 100%; CYPES pre-emergence efficacy (herbicidal activity) (Cyperus esculentus): 80%; SETVI pre-emergence efficacy (herbicidal activity) (Setaria viridis [15]; Dosage 80 g/ha): 100%; ALOMY pre-emergence efficacy (herbicidal activity) (Alopecurus myosuroides [16]): 100%
2 | CS(=O)(=O)c1cnc(NC2CCCc3sccc32)nc1N (racemic) [compound 23] | 80 | 100 | 80 | 80 | 80 | 80 | 90 | 90 | 90 | 100 | 100 | 100 | 100 | 100 | 100 | 100 | 100 | 100 | 100 | 100 | post-emergence efficacy PHBPU (Ipomoea purpurea [20]; 80 g/ha): 80%; post-emergence efficacy PHBPU (Ipomoea purpurea [20]; 320 g/ha): 80%; post-emergence efficacy POLCO (Polygonum convolvulus [21]): 80%; post-emergence efficacy MATIN (Matricaria inodora [22]; 80 g/ha): 80%; post-emergence efficacy MATIN (Matricaria inodora [22]; 320 g/ha): 100%; ECHCG pre-emergence efficacy (herbicidal activity) (Echinochloa crus-galli [11]; Dosage 320 g/ha): 100%; LOLMU pre-emergence efficacy (herbicidal activity) (Lolium multiflorum [23]): 100%; AMARE pre-emergence efficacy (herbicidal activity) (Amaranthus retroflexus [12]; Dosage 80 g/ha): 100%; PHBPU pre-emergence efficacy (herbicidal activity) (Ipomoea purpurea [24]): 100%; AVEFA pre-emergence efficacy (herbicidal activity) (Avena fatua): 90%; ALOMY pre-emergence efficacy (herbicidal activity) (Alopecurus myosuroides [16]): 80%; POLCO pre-emergence efficacy (herbicidal activity) (Polygonum convolvulus [17]; Dosage 80 g/ha): 100%
3 | CCOC(=O)c1cnc(NC2CCCc3sc(C)cc32)nc1C (racemic) [compound 240] | – | – | – | – | – | – | – | – | – | 70 | 100 | 80 | 100 | 100 | 100 | 70 | 100 | 100 | 90 | 100 | LOLMU pre-emergence efficacy (herbicidal activity) (Lolium multiflorum [23]): 60%; PHBPU pre-emergence efficacy (herbicidal activity) (Ipomoea purpurea [24]): 10%; ABUTH pre-emergence efficacy (herbicidal activity) (Abutilon theophrasti [14]; Dosage 320 g/ha): 70%; SETVI pre-emergence efficacy (herbicidal activity) (Setaria viridis [15]; Dosage 80 g/ha): 90%; POLCO pre-emergence efficacy (herbicidal activity) (Polygonum convolvulus [17]; Dosage 80 g/ha): 70%
